{"source": "PubChem BioAssay (NCI)", "assay_in_all_cases": "NCI-60 cell line screen, 48 h", "key": {"[1]": {"test_system": "786-0 renal"}, "[2]": {"test_system": "A498 renal"}, "[3]": {"test_system": "A549 NSCLC"}, "[4]": {"test_system": "ACHN renal"}, "[5]": {"test_system": "BT-549 breast"}, "[6]": {"test_system": "CAKI-1 renal"}, "[7]": {"test_system": "CCRF-CEM leukemia"}, "[8]": {"test_system": "COLO 205 colon"}, "[9]": {"test_system": "DU-145 prostate"}, "[10]": {"test_system": "EKVX NSCLC"}, "[11]": {"test_system": "HCC-2998 colon"}, "[12]": {"test_system": "HCT-116 colon"}, "[13]": {"test_system": "HCT-15 colon"}, "[14]": {"test_system": "HOP-62 NSCLC"}, "[15]": {"test_system": "HOP-92 NSCLC"}, "[16]": {"test_system": "HS 578T breast"}, "[17]": {"test_system": "IGROV1 ovarian"}, "[18]": {"test_system": "K-562 leukemia"}, "[19]": {"test_system": "KM12 colon"}, "[20]": {"test_system": "LOX IMVI melanoma"}, "[21]": {"test_system": "M14 melanoma"}, "[22]": {"test_system": "MALME-3M melanoma"}, "[23]": {"test_system": "MCF7 breast"}, "[24]": {"test_system": "MDA-MB-231 breast"}, "[25]": {"test_system": "MDA-MB-435"}, "[26]": {"test_system": "MOLT-4 leukemia"}, "[27]": {"test_system": "NCI-H226 lung"}, "[28]": {"test_system": "NCI-H23 lung"}, "[29]": {"test_system": "NCI-H460 lung"}, "[30]": {"test_system": "NCI-H522 lung"}, "[31]": {"test_system": "NCI/ADR-RES ovarian"}, "[32]": {"test_system": "OVCAR-3 ovarian"}, "[33]": {"test_system": "OVCAR-4 ovarian"}, "[34]": {"test_system": "OVCAR-5 ovarian"}, "[35]": {"test_system": "OVCAR-8 ovarian"}, "[36]": {"test_system": "PC-3 prostate"}, "[37]": {"test_system": "RPMI-8226 leukemia"}, "[38]": {"test_system": "RXF 393 renal"}, "[39]": {"test_system": "SF-268 CNS"}, "[40]": {"test_system": "SF-295 CNS"}, "[41]": {"test_system": "SF-539 CNS"}, "[42]": {"test_system": "SK-MEL-2 melanoma"}, "[43]": {"test_system": "SK-MEL-5 melanoma"}, "[44]": {"test_system": "SK-OV-3 ovarian"}, "[45]": {"test_system": "SN12C renal"}, "[46]": {"test_system": "SNB-19 CNS"}, "[47]": {"test_system": "SR leukemia"}, "[48]": {"test_system": "SW-620 colon"}, "[49]": {"test_system": "TK-10 renal"}, "[50]": {"test_system": "U251 CNS"}, "[51]": {"test_system": "UACC-257 melanoma"}, "[52]": {"test_system": "UACC-62 melanoma"}, "[53]": {"test_system": "UO-31 renal"}}, "note": "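Briefly, cells in 96-well plates were exposed to five compound concentrations for 48 h, and endpoints were estimated by linear interpolation. At the GI50, growth is halved. TGI marks complete inhibition of growth.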"}
{"compound": "CCCCCCCCCCCCCCCCN1CC2CCCCC2C1", "note": "(stereo unspecified)", "values": [{"measurement": "GI50", "setting": "[1]", "result": 3.49, "unit": "µM"}, {"measurement": "TGI", "setting": "[1]", "result": 14, "unit": "µM"}, {"measurement": "GI50", "setting": "[2]", "result": 16.2, "unit": "µM"}, {"measurement": "TGI", "setting": "[2]", "result": 30.6, "unit": "µM"}, {"measurement": "GI50", "setting": "[3]", "result": 4.09, "unit": "µM"}, {"measurement": "TGI", "setting": "[3]", "result": 17, "unit": "µM"}, {"measurement": "GI50", "setting": "[4]", "result": 15.7, "unit": "µM"}, {"measurement": "TGI", "setting": "[4]", "result": 31.1, "unit": "µM"}, {"measurement": "GI50", "setting": "[5]", "result": 11.3, "unit": "µM"}, {"measurement": "TGI", "setting": "[5]", "result": 24.6, "unit": "µM"}, {"measurement": "GI50", "setting": "[6]", "result": 2.49, "unit": "µM"}, {"measurement": "TGI", "setting": "[6]", "result": 8.91, "unit": "µM"}, {"measurement": "GI50", "setting": "[7]", "result": 2.43, "unit": "µM"}, {"measurement": "TGI", "setting": "[7]", "result": 6.56, "unit": "µM"}, {"measurement": "GI50", "setting": "[8]", "result": 4.37, "unit": "µM"}, {"measurement": "TGI", "setting": "[8]", "result": 17.7, "unit": "µM"}, {"measurement": "GI50", "setting": "[9]", "result": 3.85, "unit": "µM"}, {"measurement": "TGI", "setting": "[9]", "result": 14.1, "unit": "µM"}, {"measurement": "GI50", "setting": "[10]", "result": 9.19, "unit": "µM"}, {"measurement": "TGI", "setting": "[10]", "result": 21.8, "unit": "µM"}, {"measurement": "GI50", "setting": "[11]", "result": 2.17, "unit": "µM"}, {"measurement": "TGI", "setting": "[11]", "result": 5.44, "unit": "µM"}, {"measurement": "GI50", "setting": "[12]", "result": 2.97, "unit": "µM"}, {"measurement": "TGI", "setting": "[12]", "result": 10.8, "unit": "µM"}, {"measurement": "GI50", "setting": "[13]", "result": 6.79, "unit": "µM"}, {"measurement": "TGI", "setting": "[13]", "result": 61.2, "unit": "µM"}, {"measurement": "GI50", "setting": "[14]", "result": 12.5, "unit": "µM"}, {"measurement": "TGI", "setting": "[14]", "result": 25.7, "unit": "µM"}, {"measurement": "GI50", "setting": "[15]", "result": 2.38, "unit": "µM"}, {"measurement": "TGI", "setting": "[15]", "result": 6.52, "unit": "µM"}, {"measurement": "GI50", "setting": "[16]", "result": 11.8, "unit": "µM"}, {"measurement": "TGI", "setting": "[16]", "result": 30.5, "unit": "µM"}, {"measurement": "GI50", "setting": "[17]", "result": 3.58, "unit": "µM"}, {"measurement": "TGI", "setting": "[17]", "result": 12.2, "unit": "µM"}, {"measurement": "GI50", "setting": "[18]", "result": 3.54, "unit": "µM"}, {"measurement": "TGI", "setting": "[18]", "result": 11.2, "unit": "µM"}, {"measurement": "GI50", "setting": "[19]", "result": 5.15, "unit": "µM"}, {"measurement": "TGI", "setting": "[19]", "result": 19.7, "unit": "µM"}, {"measurement": "GI50", "setting": "[20]", "result": 3.77, "unit": "µM"}, {"measurement": "TGI", "setting": "[20]", "result": 13.8, "unit": "µM"}, {"measurement": "GI50", "setting": "[21]", "result": 2.93, "unit": "µM"}, {"measurement": "TGI", "setting": "[21]", "result": 9.22, "unit": "µM"}, {"measurement": "GI50", "setting": "[22]", "result": 16.9, "unit": "µM"}, {"measurement": "TGI", "setting": "[22]", "result": 35.3, "unit": "µM"}, {"measurement": "GI50", "setting": "[23]", "result": 9.57, "unit": "µM"}, {"measurement": "TGI", "setting": "[23]", "result": "> 100", "unit": "µM"}, {"measurement": "GI50", "setting": "[24]", "result": 4.01, "unit": "µM"}, {"measurement": "TGI", "setting": "[24]", "result": 14, "unit": "µM"}, {"measurement": "GI50", "setting": "[25]", "result": 8.57, "unit": "µM"}, {"measurement": "TGI", "setting": "[25]", "result": 24.3, "unit": "µM"}, {"measurement": "GI50", "setting": "[26]", "result": 1.92, "unit": "µM"}, {"measurement": "TGI", "setting": "[26]", "result": 4.28, "unit": "µM"}, {"measurement": "GI50", "setting": "[27]", "result": 4.2, "unit": "µM"}, {"measurement": "TGI", "setting": "[27]", "result": 16.8, "unit": "µM"}, {"measurement": "GI50", "setting": "[28]", "result": 3.14, "unit": "µM"}, {"measurement": "TGI", "setting": "[28]", "result": 9.94, "unit": "µM"}, {"measurement": "GI50", "setting": "[29]", "result": "> 100", "unit": "µM"}, {"measurement": "TGI", "setting": "[29]", "result": "> 100", "unit": "µM"}, {"measurement": "GI50", "setting": "[30]", "result": 4.4, "unit": "µM"}, {"measurement": "TGI", "setting": "[30]", "result": 17, "unit": "µM"}, {"measurement": "GI50", "setting": "[31]", "result": 4.56, "unit": "µM"}, {"measurement": "TGI", "setting": "[31]", "result": 16.8, "unit": "µM"}, {"measurement": "GI50", "setting": "[32]", "result": 17.6, "unit": "µM"}, {"measurement": "TGI", "setting": "[32]", "result": 34.1, "unit": "µM"}, {"measurement": "GI50", "setting": "[33]", "result": 11.9, "unit": "µM"}, {"measurement": "TGI", "setting": "[33]", "result": 25.9, "unit": "µM"}, {"measurement": "GI50", "setting": "[34]", "result": 5.33, "unit": "µM"}, {"measurement": "TGI", "setting": "[34]", "result": 18.8, "unit": "µM"}, {"measurement": "GI50", "setting": "[35]", "result": 4.18, "unit": "µM"}, {"measurement": "TGI", "setting": "[35]", "result": 17.6, "unit": "µM"}, {"measurement": "GI50", "setting": "[36]", "result": 2.11, "unit": "µM"}, {"measurement": "TGI", "setting": "[36]", "result": 5.56, "unit": "µM"}, {"measurement": "GI50", "setting": "[37]", "result": 1.97, "unit": "µM"}, {"measurement": "TGI", "setting": "[37]", "result": 4.06, "unit": "µM"}, {"measurement": "GI50", "setting": "[38]", "result": 2.3, "unit": "µM"}, {"measurement": "TGI", "setting": "[38]", "result": 6.78, "unit": "µM"}, {"measurement": "GI50", "setting": "[39]", "result": 69.2, "unit": "µM"}, {"measurement": "TGI", "setting": "[39]", "result": "> 100", "unit": "µM"}, {"measurement": "GI50", "setting": "[40]", "result": 14.6, "unit": "µM"}, {"measurement": "TGI", "setting": "[40]", "result": 37, "unit": "µM"}, {"measurement": "GI50", "setting": "[41]", "result": 5.52, "unit": "µM"}, {"measurement": "TGI", "setting": "[41]", "result": 18.6, "unit": "µM"}, {"measurement": "GI50", "setting": "[42]", "result": 12.1, "unit": "µM"}, {"measurement": "TGI", "setting": "[42]", "result": 26.3, "unit": "µM"}, {"measurement": "GI50", "setting": "[43]", "result": 5.84, "unit": "µM"}, {"measurement": "TGI", "setting": "[43]", "result": 19.5, "unit": "µM"}, {"measurement": "GI50", "setting": "[44]", "result": 12.5, "unit": "µM"}, {"measurement": "TGI", "setting": "[44]", "result": 29.7, "unit": "µM"}, {"measurement": "GI50", "setting": "[45]", "result": 8.26, "unit": "µM"}, {"measurement": "TGI", "setting": "[45]", "result": 21.3, "unit": "µM"}, {"measurement": "GI50", "setting": "[46]", "result": 7, "unit": "µM"}, {"measurement": "TGI", "setting": "[46]", "result": 27.7, "unit": "µM"}, {"measurement": "GI50", "setting": "[47]", "result": 2.07, "unit": "µM"}, {"measurement": "TGI", "setting": "[47]", "result": 4.64, "unit": "µM"}, {"measurement": "GI50", "setting": "[48]", "result": 3.87, "unit": "µM"}, {"measurement": "TGI", "setting": "[48]", "result": 15, "unit": "µM"}, {"measurement": "GI50", "setting": "[49]", "result": 11.2, "unit": "µM"}, {"measurement": "TGI", "setting": "[49]", "result": 26.1, "unit": "µM"}, {"measurement": "GI50", "setting": "[50]", "result": 14.5, "unit": "µM"}, {"measurement": "TGI", "setting": "[50]", "result": "> 100", "unit": "µM"}, {"measurement": "GI50", "setting": "[51]", "result": 12.6, "unit": "µM"}, {"measurement": "TGI", "setting": "[51]", "result": 27, "unit": "µM"}, {"measurement": "GI50", "setting": "[52]", "result": 8.1, "unit": "µM"}, {"measurement": "TGI", "setting": "[52]", "result": 21.1, "unit": "µM"}, {"measurement": "GI50", "setting": "[53]", "result": 6, "unit": "µM"}, {"measurement": "TGI", "setting": "[53]", "result": 19.2, "unit": "µM"}]}
